{"source": "patent US10478437B2", "about": "“Combination therapy to enhance the anticancer efficacy of platinum drugs” (University of Pittsburgh-of the Commonwealth System of …, priority 2014, dated 2019)", "format_in_all_cases": "cell-based, human", "key": {"[1]": {"test_system": "cisplatin-resistant ovarian cancer cell line A2780cis", "experiment": "Caspase-3/7 activity assay (apoptotic cell death), compound alone or with cisplatin", "conditions": "compound 20 μM, 20 h", "summary_of_the_method": "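Caspase-3/7 activity in A2780cis cells treated with compound alone or with cisplatin, luminescent Caspase-Glo 3/7 read-out. Apoptotic morphology is checked microscopically just before measurement.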"}, "[2]": {"test_system": "cisplatin-resistant ovarian cancer cell line A2780cis", "experiment": "CellTiter-Blue cell viability assay, compound alone or with cisplatin or carboplatin, 24 h", "conditions": "compound 20 μM; 24 h; untreated cells = 100%", "description": "Data were expressed as mean±standard deviation. A Student's t test was used for the comparisons between the treatment with the combination of analogs with cisplatin and with analogs alone. P<0.05 was considered statistically significant. Combination index was calculated using CompuSyn software. A value of 0.3-0.7 for the combination index indicates synergism, 0.1-0.3 indicates strong synergism, and <0.1 indicates very strong synergism (Chou, 2006).\nTo further validate the activity of the identified 11 active compounds (see FIG. 3), a CellTiter-Blue cell viability assay was performed with increasing concentrations (10 μM, 20 μM and 50 μM) of the disclosed compounds (see FIG. 4 and Table 5). Cisplatin resistant ovarian cancer cells (A2780cis) were treated with a disclosed compound alone, cisplatin alone or a combination of a compound with cisplatin for 24 h to determine the effects of the compounds on cell viability.\nAnalysis of the effect of the disclosed compounds with another platinum-containing compound, carboplatin, was performed. A2780cis cells were treated with carboplatin alone or with the combination of carboplatin and the disclosed compounds at indicated concentrations for 24 h followed by the analysis of cell viability."}, "A2780cis cells [3]": {"test_system": "A2780cis cells", "experiment": "Short-term (3 h) exposure, cell survival by CellTiter-Blue after 48 h in compound free media", "conditions": "cisplatin alone, viability after two days, in words", "description": "FIG. 5. Short-term exposure of A2780cis cells to the combination of cisplatin and compound 1-6 dramatically reduces cell survival. A2780cis cells were treated with increasing doses of cisplatin alone or the combination of cisplatin with compound 1-6 (20 μM) for 3 h. The compounds were then washed out. Cell survival was determined after 48 h incubation of cells in compound free media by CellTiter-Blue assay.\nFurther analysis was performed with compound 1-6. […] This synergism for the combination of cisplatin and 1-6 was further confirmed using a fresh sample of high chemical purity (98%). This synergistic effect was also observed using the CellTiter-Blue cell viability assay (FIG. 5) under an alternative exposure strategy that mimics in viva drug administration to test the combination effect. Considering the clearance of cisplatin over the time and the duration of exposure of tumor cells to the effective doses of the drugs in vivo (Los et al., 1989), a short-term exposure of cells to the combination of 20 μM of 1-6 with various doses of cisplatin was tested, followed by cell viability assay after two days."}, "A2780cis cells [4]": {"test_system": "A2780cis cells", "experiment": "Western blot of caspase/PARP cleavage, Noxa induction, RPA32 and H2AX phosphorylation", "conditions": "cisplatin 20 μM alone, FIG. 8A", "description": "(§1) Whole cell lysate was prepared by lysing cells in cell lysis buffer (Cell signaling technology) containing complete protease inhibitor (Roche). Cell lysates were then cleared at 15,000 rpm for 15 min at 4° C. The protein content was quantified using a Bio-Rad Protein Assay kit (Bio-Rad Laboratories, Hercules, Calif.). The equal amount of protein was separated on Tris-glycine gels (Invitrogen). The separated proteins were blotted onto a polyvinylidene difluoride membrane and blocked overnight at 4° C. in phosphate-buffered saline containing 0.1% Tween 20 and 10% nonfat dry milk (blocking buffer). Membranes were incubated with primary antibodies in blocking buffer overnight at 4° C. Primary antibodies used were: β-actin from Sigma; Bax, Bak, Caspase-9 and cleaved Caspase-3 from Cell Signaling Technology; phospho-Histone H2AX (Ser 139) and Noxa from Millipore. Membranes were then washed and incubated in peroxidase conjugated anti-rabbit IgG (Sigma) or anti-mouse IgG (Sigma) secondary antibody for 1 h at room temperature. Membranes were developed using SuperSignal West Femto Maximum Sensitivity Substrate (Thermo Fisher Scientific).\nA2780cis cells were treated with cisplatin alone, compounds alone or in combination with cisplatin at indicated concentrations for 20 h to analyze apoptotic cell death in response to treatment. […] Expression and cleavage of several major caspases (Caspase-8, Caspase-9 and Caspase-3), as well as poly(ADP-ribose) polymerase (PARP) and NOXA. A2780cis cells were treated with cisplatin (20 μM) alone, compounds (20 μM) alone or in combination with cisplatin for 20 h.\nTo determine the effects of the compounds on DNA damage and mitochondrial dysfunction, A2780cis cells were treated with cisplatin (20 μM) alone or the combination of cisplatin with 20 μM of compound 1-6. Replication protein A (RPA) is a single strand-specific DNA-binding protein, consisting of three subunits, RPA70, RPA32, and RPA14. RPA32 is phosphorylated in response to DNA replication stress. Western blot analysis was performed to evaluate the phosphorylation of RPA32 and histone H2AX, the induction of Noxa expression and cleavage of caspase-3. […] A2780cis cells were treated with cisplatin (50 μM) alone, 1-6 (50 μM) alone or the combination of cisplatin and compound 1-6 for 4 h. The oxygen consumption rate (OCR) was measured by a Seahorse extracellular flux analyzer."}, "[5]": {"test_system": "PEO4, SKOV3, H1299, MDA-MB-231, Ca133 cells", "experiment": "Western blot of PARP and Caspase-3 cleavage in other cisplatin-resistant cancer cells", "conditions": "20 μM alone, 20 h, FIG. 9; in words", "description": "FIG. 9. The combination of cisplatin and compound 1-6 triggers extensive apoptosis in various types of cisplatin- and multidrug-resistant tumor cells. Cisplatin-resistant cancer cells PEO4 (ovarian), SKOV3 (ovarian), H1299 (lung), MDA-MB-231 (breast), Ca133 (head & neck) were treated with DMSO (untreated), cisplatin (20 μM) alone, compound 1-6 (20 μM) alone, or the combination for 20 h. Cleavage of PARP and Caspase-3 were determined by western blot.\nas §1\nTo evaluate whether the synergistic effects of the disclosed compounds and cisplatin could be extended to other types of cancer cells, breast cancer cells (MDA-MB-231), non-small cell lung carcinoma cells (H-1299), ovarian cancer cells (PEO4 and SKOV3) and head and neck cancer cells (Ca133) were treated with various combinations of cisplatin and compound 1-6 and analyzed for Caspase-3."}}, "data": [{"smiles": "N.N.[Cl][Pt][Cl]", "note": "[cisplatin, reference compound]", "values": [{"measurement": "caspase-3/7 activity (Lum), compound alone", "setting": "[1]; Table 1, mean ± S.D. of triplicates", "result": "30 ± 1", "unit": "Lum"}, {"measurement": "caspase-3/7 activity (Lum), compound alone", "setting": "[1]; Table 2", "result": "30 ± 1", "unit": "Lum"}, {"measurement": "caspase-3/7 activity (Lum), compound alone", "setting": "[1]; Table 3", "result": "35 ± 4", "unit": "Lum"}, {"measurement": "caspase-3/7 activity (Lum), compound alone", "setting": "[1]; Table 4", "result": "35 ± 4", "unit": "Lum"}, {"measurement": "caspase-3/7 activity (Lum) with compound alone", "setting": "[1]; Table 6, untreated cells 9 ± 1", "result": "28 ± 4", "unit": "Lum"}, {"measurement": "survival (%) of cells with compound alone", "setting": "[2]", "result": "89.3 ± 0.6", "unit": "%"}, {"measurement": "effect of 3 hr exposure to cisplatin alone on cell viability", "setting": "A2780cis cells [3]", "result": "slight effect on cell viability"}, {"measurement": "time of increase in the phosphorylation of RPA32 post treatment, cisplatin alone", "setting": "A2780cis cells [4]", "result": "> 12", "unit": "h"}, {"measurement": "cell death after single compound exposure", "setting": "[5]", "result": "minimal effect in inducing cell death"}]}]}
